Data published in patent US12655090B2, “Cyclopropylamide compounds against parasites in fish” (Intervet Inc., priority 2021, dated 2026).
Like-named read-outs stand apart in the source and are kept apart here.

Key:
[1] = system: Copepodids (juvenile sea lice stage of Lepeophtheirus salmonis); experiment: Juvenile sea lice contact assay; conditions: approximately 24 hours continuous exposure in seawater, read-out: Sea lice inhibition (% of dead+damaged copepodids); for inhibition at 0.001 µM: test concentration 1 nM; for inhibition at 10 pM: test concentration 0.01 nM; for inhibition at 0.0001 µM: test concentration 0.1 nM; for inhibition at 0.1 µM: test concentration 100 nM; for inhibition at 0.01 µM: test concentration 10 nM
Description: Copepodids (juvenile sea lice stage of Lepeophtheirus salmonis) were exposed to seawater spiked with declining concentrations of a test compound (dissolved in a DMSO sea-water mixture). Sea lice inhibition (% of dead+damaged copepodids) was assessed after approximately 24 hours of continuous exposure. The vitality of used parasites was confirmed in a negative (solvent) control group.

[2] = system: Mobile stages of sea lice (pre-adults, adults of Lepeophtheirus salmonis); experiment: Adult sea lice contact assay; conditions: assessed after approximately 1 and 24 hours of continuous exposure, read-out: EC50 (sea lice inhibition, dead+damaged sea lice)
Description: Mobile stages of sea lice (i.e., pre-adults, adults of Lepeophtheirus salmonis) were exposed to seawater spiked with declining concentrations of a test compound (dissolved in a PEG sea-water mixture). Sea lice inhibition (% of dead+damaged sea lice) was assessed after approximately 1 and 24 hours of continuous exposure in comparison to a negative (solvent) control group.

[3] = system: Lepeophtheirus salmonis sea lice on salmon (Salmo salar); experiment: Salmon in vivo efficacy trial using gavage administration; conditions: po
Description: Salmon (Salmo salar) were treated once orally by gavage at a dose of 5 mg/kg bodyweight per fish (Day 0). As formulation DMSO 5%/fish oil 95% was used. Salmon of the negative control group received only the excipients of the formulation. The fish were infested with Lepeophtheirus salmonis copepodids twice before treatment (i.e., around day −28 and day −3) and once after treatment (i.e., day 17). […] Around day 28 (end of animal phase), fish were euthanized, and lice on each fish were classified ((pre-)adult or juvenile stage) and counted. […] Efficacy is expressed as a % reduction of sea lice in treated groups versus a control group, using the Abbott's formula.

[4] = 168 h, read-out: therapeutic efficacy against (pre-)adult sea lice (% reduction vs control, Abbott's formula), once orally by gavage 5 mg/kg bodyweight, day -28 infestation, counted at day 7
[5] = 672 h, read-out: therapeutic efficacy against juvenile sea lice (% reduction vs control, Abbott's formula), once orally by gavage 5 mg/kg bodyweight, day -3 infestation, counted around day 28
[6] = 672 h, read-out: prophylactic efficacy at re-infestation on Day 17 (% reduction vs control, Abbott's formula), once orally by gavage 5 mg/kg bodyweight, re-infestation day 17, counted around day 28

Compound | inhibition at 0.001 µM [1] [%] | EC50 [2] [nM] | inhibition in vivo at 5 mg/kg [3, 4] [%] | inhibition in vivo at 5 mg/kg [3, 5] [%] | inhibition at 10 pM [1] [%] | inhibition at 0.0001 µM [1] [%] | inhibition at 0.1 µM [1] [%] | inhibition at 0.01 µM [1] [%] | inhibition in vivo at 5 mg/kg [3, 6] [%]
O=C(NC1CC(F)(F)C1)c1cc(NC(=O)[C@H]2[C@H](c3cccc(C(F)(F)F)c3)C2(Cl)Cl)ccc1Cl [Compound 1601] | 100 | 1 to 10 | 100 | 100 | – | – | – | – | –
O=C(NCC(F)(F)F)c1cc(NC(=O)[C@H]2[C@H](c3cc(F)c(F)c(F)c3)C2(Cl)Cl)ccc1Cl [Compound 1593] | – | ≤ 1 | 100 | 80 | 100 | – | – | – | –
O=C(NCC(F)(F)F)c1cc(NC(=O)[C@H]2[C@H](c3cc(Cl)cc(Cl)c3)C2(Cl)Cl)ccc1Cl [Compound 1592] | – | ≤ 1 | 100 | 100 | – | 80 | – | – | –
N#CC1(NC(=O)c2cc(NC(=O)[C@H]3[C@H](c4ccc(C(F)F)c(F)c4)C3(Cl)Cl)ccc2Cl)CC1 [Compound 1587] | – | ≤ 1 | 80 | – | – | – | 100 | – | –
C#CCNC(=O)c1cc(NC(=O)[C@H]2[C@H](c3cc(Cl)cc(Cl)c3)C2(Cl)Cl)ccc1Cl [Compound 1622] | – | ≤ 1 | 100 | – | – | – | – | ≥ 80 | –
O=C(NC1CC1)c1cc(NC(=O)[C@H]2[C@H](c3cc(Cl)cc(Cl)c3)C2(Cl)Cl)ccc1Cl [Compound 1621] | – | ≤ 1 | 100 | 80 | – | – | – | 100 | –
N#CC1(NC(=O)c2cc(NC(=O)[C@H]3[C@H](c4cc(F)c(F)c(F)c4)C3(Cl)Cl)ccc2F)CC1 [Compound 1623] | – | 1 to 10 | 100 | 80 | – | 100 | – | – | –
O=C(NC1CC1)c1cc(NC(=O)[C@H]2[C@H](c3cc(Cl)cc(Cl)c3)C2(Cl)Cl)cc(F)c1F [Compound 1618] | – | ≤ 1 | 100 | 100 | – | – | – | 100 | 100
O=C(NC1CC(F)(F)C1)c1cc(NC(=O)[C@H]2[C@H](c3cc(Cl)cc(Cl)c3)C2(Cl)Cl)cc(F)c1F [Compound 1628] | – | 1 to 10 | 100 | 100 | – | – | – | 100 | 100
O=C(NC1CC1)c1cc(NC(=O)[C@H]2[C@H](c3cc(Cl)cc(Cl)c3)C2(Cl)Cl)ccc1F [Compound 1632] | – | ≤ 1 | 100 | 80 | 80 | – | – | – | –
O=C(NCC(F)(F)F)c1cc(NC(=O)[C@H]2[C@H](c3ccc(F)c(F)c3)C2(Cl)Cl)ccc1Cl [Compound 1584] | – | ≤ 1 | 100 | – | – | 100 | – | – | –
O=C(NC1CC(F)(F)C1)c1cc(NC(=O)[C@H]2[C@H](c3cc(Cl)cc(Cl)c3)C2(Cl)Cl)ccc1F [Compound 1630] | – | ≤ 1 | 100 | 100 | – | – | – | 100 | 100
N#CC1(NC(=O)c2cc(NC(=O)[C@H]3[C@H](c4cc(F)c(F)c(F)c4)C3(Cl)Cl)ccc2Cl)CC1 [Compound 1624] | – | 1 to 10 | 100 | 80 | – | 100 | – | – | 80
N#CC1(NC(=O)c2cc(NC(=O)[C@H]3[C@H](c4ccc(Cl)c(F)c4)C3(Cl)Cl)ccc2Cl)CC1 [Compound 1606] | – | 10 to 25 | 100 | 100 | – | – | 100 | – | –
N#Cc1cc(Cl)cc(C2C(C(=O)Nc3ccc(Cl)c(C(=O)NC4(C#N)CC4)c3)C2(Cl)Cl)c1 (racemic) [Compound 1532] | – | 10 to 25 | – | – | – | – | 100 | – | –
O=C(NC1(C(F)(F)F)CC1)c1cc(NC(=O)C2C(c3cc(F)c(F)c(F)c3)C2(Cl)Cl)ccc1Cl (centres unmarked) [Compound 1604] | – | 10 to 25 | – | – | – | – | – | 100 | –
O=C(NC1CC(F)(F)C1)c1cc(NC(=O)[C@H]2[C@H](c3cc(Cl)cc(Cl)c3)C2(Cl)Cl)ccc1Cl [Compound 1625] | – | ≤ 1 | 100 | 100 | – | – | 100 | – | 100
N#CC1(NC(=O)c2cc(NC(=O)C3C(c4cc(Cl)cc(C(F)F)c4)C3(Cl)Cl)ccc2Cl)CC1 (racemic) [Compound 1545] | – | 10 to 25 | – | – | – | – | 100 | – | –
C#CCNC(=O)c1cc(NC(=O)C2C(c3cc(C(F)(F)F)cc(C(F)(F)F)c3)C2(Cl)Cl)ccc1Cl (centres unmarked) [Compound 1614] | 80 | ≤ 1 | – | – | – | – | – | – | –
N#CC1(NC(=O)c2cc(NC(=O)C3C(c4cc(Cl)cc(Cl)c4)C3(Cl)Cl)ccc2F)CC1 (centres unmarked) [Compound 1605] | – | ≤ 1 | 100 | 100 | 100 | – | – | – | –
N#CC1(NC(=O)c2cc(NC(=O)[C@H]3[C@H](c4ccc(F)c(Cl)c4)C3(Cl)Cl)ccc2Cl)CC1 [Compound 1608] | – | ≤ 1 | 100 | 100 | 100 | – | – | – | –
N#CC1(NC(=O)c2cc(NC(=O)[C@H]3[C@H](c4ccc(Br)c(Cl)c4)C3(Cl)Cl)ccc2Cl)CC1 [Compound 1585] | – | 1 to 10 | 100 | 100 | – | – | 100 | – | –
CC1(NC(=O)c2cc(NC(=O)[C@H]3[C@H](c4cc(Cl)cc(Cl)c4)C3(Cl)Cl)ccc2F)CC1 [Compound 1626] | – | 1 to 10 | 100 | 80 | – | – | – | ≥ 80 | –
CC1(NC(=O)c2cc(NC(=O)[C@H]3[C@H](c4cc(Cl)cc(Cl)c4)C3(Cl)Cl)ccc2Cl)CC1 [Compound 1619] | – | ≤ 1 | 100 | 80 | – | – | – | 100 | –
N#CC1(NC(=O)c2cc(NC(=O)C3C(c4cc(C(F)(F)F)cc(C(F)(F)F)c4)C3(Cl)Cl)cc(F)c2F)CC1 (centres unmarked) [Compound 1615] | – | 1 to 10 | – | – | – | – | – | 100 | –
O=C(NCC(F)(F)F)c1cc(NC(=O)C2C(c3cc(C(F)(F)F)cc(C(F)(F)F)c3)C2(Cl)Cl)ccc1Cl (centres unmarked) [Compound 1613] | – | ≤ 1 | – | – | – | – | – | 100 | –
C#CC1(NC(=O)c2cc(NC(=O)[C@H]3[C@H](c4cc(Cl)cc(Cl)c4)C3(Cl)Cl)ccc2F)CC1 [Compound 1633, 5-((1R,3R)-2,2-dichloro-3-(3,5-dichlorophenyl)cyclopropane-1-carboxamido)-N-(1-ethynylcyclopropyl)-2-fluorobenzamide] | 80 | ≤ 1 | 100 | 100 | – | – | – | – | 80
C#CC1(NC(=O)c2cc(NC(=O)[C@H]3[C@H](c4cc(Cl)cc(Cl)c4)C3(Cl)Cl)ccc2Cl)CC1 [Compound 1620, 2-chloro-5-((1R,3R)-2,2-dichloro-3-(3,5-dichlorophenyl)cyclopropane-1-carboxamido)-N-(1-ethynylcyclopropyl)benzamide] | – | ≤ 1 | 100 | 80 | – | – | – | 100 | –
Cc1cc(C2C(C(=O)Nc3ccc(Cl)c(C(=O)NC4(C#N)CC4)c3)C2(Cl)Cl)cc(Cl)c1Cl (racemic) [Compound 1514] | – | 10 to 25 | – | – | – | – | 100 | – | –
C#CC1(NC(=O)c2cc(NC(=O)[C@H]3[C@H](c4cc(Cl)cc(Cl)c4)C3(Cl)Cl)cc(F)c2F)CC1 [Compound 1617, 5-((1R,3R)-2,2-dichloro-3-(3,5-dichlorophenyl)cyclopropane-1-carboxamido)-N-(1-ethynylcyclopropyl)-2,3-difluorobenzamide] | – | ≤ 1 | 100 | 100 | – | – | 100 | – | 100
